Laboratory results reported in patent US20240208992A1, “MACROCYCLES AS CFTR MODULATORS” (Idorsia Pharmaceuticals Ltd, priority 2021, published 2024).

Molecular target: human F508del-CFTR (Homo sapiens, UniProt P13569, DEL508-508)
Assay: F508del-CFTR cell surface expression (corrector activity), DiscoveRx ß-galactosidase complementation chemiluminescence assay in recombinant U2OS cell line;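 further: U2OS cells co-expressing ProLink-tagged F508del-CFTR and a membrane-anchored enzyme acceptor, where more surface CFTR restores β-galactosidase activity measured by chemiluminescence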
Conditions: for EC50: EC50, F508del-CFTR cell surface expression, U2OS cells, 16h compound incubation, geomean values; for Emax: U2OS, in relation to Emax of corrector lumacaftor (=100%), arithmetic mean values

human F508del-CFTR, sequence (P13569 with tags, fused parts or gaps DEL508-508): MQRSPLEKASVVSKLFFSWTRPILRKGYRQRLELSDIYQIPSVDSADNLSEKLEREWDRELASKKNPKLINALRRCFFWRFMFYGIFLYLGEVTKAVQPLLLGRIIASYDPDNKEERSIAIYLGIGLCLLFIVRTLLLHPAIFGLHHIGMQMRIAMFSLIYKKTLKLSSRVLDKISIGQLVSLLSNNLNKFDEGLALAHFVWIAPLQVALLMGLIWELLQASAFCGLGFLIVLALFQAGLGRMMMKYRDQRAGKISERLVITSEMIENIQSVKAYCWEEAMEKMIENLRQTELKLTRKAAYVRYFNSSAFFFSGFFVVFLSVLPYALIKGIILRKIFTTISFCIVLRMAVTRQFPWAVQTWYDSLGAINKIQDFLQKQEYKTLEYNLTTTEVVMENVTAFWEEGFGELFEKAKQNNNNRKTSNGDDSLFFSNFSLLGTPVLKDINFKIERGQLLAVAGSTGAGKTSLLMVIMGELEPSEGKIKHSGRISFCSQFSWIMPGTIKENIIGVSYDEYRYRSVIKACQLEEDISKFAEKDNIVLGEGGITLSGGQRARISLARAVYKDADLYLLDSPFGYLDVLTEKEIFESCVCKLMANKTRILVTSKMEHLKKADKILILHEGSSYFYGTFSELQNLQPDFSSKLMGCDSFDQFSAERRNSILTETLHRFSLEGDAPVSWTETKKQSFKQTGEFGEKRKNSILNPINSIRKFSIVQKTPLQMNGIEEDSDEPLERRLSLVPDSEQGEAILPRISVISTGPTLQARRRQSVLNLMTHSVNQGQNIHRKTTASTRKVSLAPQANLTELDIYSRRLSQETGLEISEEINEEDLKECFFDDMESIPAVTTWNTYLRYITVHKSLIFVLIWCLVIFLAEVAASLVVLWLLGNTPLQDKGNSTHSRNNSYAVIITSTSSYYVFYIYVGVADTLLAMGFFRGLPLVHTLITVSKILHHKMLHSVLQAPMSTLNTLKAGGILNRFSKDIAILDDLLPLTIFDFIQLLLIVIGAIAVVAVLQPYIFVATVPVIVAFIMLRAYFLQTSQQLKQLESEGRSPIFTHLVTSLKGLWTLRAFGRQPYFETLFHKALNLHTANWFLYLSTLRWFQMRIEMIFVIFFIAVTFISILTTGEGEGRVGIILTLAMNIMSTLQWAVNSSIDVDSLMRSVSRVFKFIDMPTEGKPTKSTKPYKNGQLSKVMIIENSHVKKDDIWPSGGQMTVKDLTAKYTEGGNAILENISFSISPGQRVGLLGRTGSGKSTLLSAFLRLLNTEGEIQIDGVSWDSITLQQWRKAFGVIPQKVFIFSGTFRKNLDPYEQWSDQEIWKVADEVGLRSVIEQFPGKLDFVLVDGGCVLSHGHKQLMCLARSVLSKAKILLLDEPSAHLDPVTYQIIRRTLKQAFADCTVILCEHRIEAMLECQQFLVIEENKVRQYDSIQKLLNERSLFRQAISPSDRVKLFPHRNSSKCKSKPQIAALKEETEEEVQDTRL

Compound	EC50 [nM]	Emax [%]
Cc1nc2ccc3c(c2o1)C(=O)N[C@H](C(=O)NCCc1ccc(-n2nccn2)cc1)CC(=O)N(C)[C@@H](CC(C)C)C(=O)N1CCN(CC2CC2)C[C@@H]1C(=O)N[C@H](Cc1ccccc1)CO3 [Example 428, (8S,12S,18aR,21R)-N-(4-(2H-1,2,3-triazol-2-yl)phenethyl)-21-benzyl-17-(cyclopropylmethyl)-12-isobutyl-4,11-dimethyl-6,10,13,19-tetraoxo-6,7,8,9,10,11,12,13,16,17,18,18a,19,20,21,22-hexadecahydro-15H-oxazolo[4′,5′:5,6]benzo[1,2-p]pyrazino[2,1-f][1]oxa[4,7,10,14]tetraazacycloheptadecine-8-carboxamide]	614	218
Cc1cc(CCNC(=O)[C@@H]2CC(=O)N(C)[C@@H](CC(C)C)C(=O)N3CCCC[C@@H]3C(=O)N[C@H](Cc3ccccc3)COc3ccc4c(cnn4C)c3C(=O)N2)on1 [Example 429, (8S,12S,18aR,21R)-21-benzyl-12-isobutyl-3,11-dimethyl-N-(2-(3-methylisoxazol-5-yl)ethyl)-6,10,13,19-tetraoxo-6,7,8,9,10,11,12,13,16,17,18,18a,19,20,21,22-hexadecahydro-3H,15H-pyrido[2′,11:6,7][1]oxa[4,7,10,14]tetraazacycloheptadecino[16,17-e]indazole-8-carboxamide]	606	224
CC(C)C[C@H]1C(=O)N(C)CC(=O)N[C@H](Cc2ccccc2)COc2nc3ccccn3c2C(=O)N[C@H](C(=O)NCCc2ccc3c(c2)OCO3)CC(=O)N1C [Example 430, (3R,9S,13S)-N-(2-(benzo[d][1,3]dioxol-5-yl)ethyl)-3-benzyl-9-isobutyl-7,10-dimethyl-5,8,11,15-tetraoxo-2,3,4,5,6,7,8,9,10,11,12,13,14,15-tetradecahydropyrido[2′,11:2,3]imidazo[4,5-p][1]oxa[4,7,10,14]tetraazacycloheptadecine-13-carboxamide]	964	194
COc1cccc(CCNC(=O)[C@@H]2CC(=O)N(C)[C@@H](CC(C)C)C(=O)N(C)C3(CC3)C(=O)N[C@H](Cc3ccccc3)COc3cnc4ccccc4c3C(=O)N2)c1 [Example 433, (3′S,7′S,13′R)-13′-benzyl-7′-isobutyl-N-(3-methoxyphenethyl)-6′,9′-dimethyl-1′,5′,8′,11′-tetraoxo-2′,3′,4′,5′,6′,7′,8′,9′,11′,12′,13′,14′-dodecahydro-1′H-spiro[cyclopropane-1,10′-[1]oxa[4,7,10,14]tetraazacycloheptadecino[17,16-c]quinoline]-3′-carboxamide]	167	344
COc1cccc(CCNC(=O)[C@@H]2CC(=O)N(C)[C@@H](CC(C)C)C(=O)N(C)C3(CC3)C(=O)N[C@H](Cc3ccccc3)COc3ccnc(OC)c3C(=O)N2)c1 [Example 438, (3′R,9′S,13′S)-3′-benzyl-9′-isobutyl-16′-methoxy-N-(3-methoxyphenethyl)-7′,10′-dimethyl-5′,8′,11′,15′-tetraoxo-2′,3′,4′,5′,8′,9′,10′,11′,12′,13′,14′,15′-dodecahydro-7′H-spiro[cyclopropane-1,6′-pyrido[3,4-p][1]oxa[4,7,10,14]tetraazacycloheptadecine]-13′-carboxamide]	474	422
COc1cccc(CCNC(=O)[C@@H]2CC(=O)N(C)[C@@H](CC(C)C)C(=O)N(C)C3(CC3)C(=O)N[C@H](Cc3ccccc3)COc3cnc4c(F)cccc4c3C(=O)N2)c1 [Example 439, (3′S,7′S,13′R)-13′-benzyl-18′-fluoro-7′-isobutyl-N-(3-methoxyphenethyl)-6′,9′-dimethyl-1′,5′,8′,11′-tetraoxo-2′,3′,4′,5′,6′,7′,8′,9′,11′,12′,13′,14′-dodecahydro-1′H-spiro[cyclopropane-1,10′-[1]oxa[4,7,10,14]tetraazacycloheptadecino[17,16-c]quinoline]-3′-carboxamide]	253	345
COc1cccc(CCNC(=O)[C@@H]2CC(=O)N(C)[C@@H](CC(C)C)C(=O)N(C)CC(=O)N[C@H](Cc3ccccc3)COc3ccc4ncccc4c3C(=O)N2)c1 [Example 441, (3S,7S,13R)-13-benzyl-7-isobutyl-N-(3-methoxyphenethyl)-6,9-dimethyl-1,5,8,11-tetraoxo-1,2,3,4,5,6,7,8,9,10,11,12,13,14-tetradecahydro-[1]oxa[4,7,10,14]tetraazacycloheptadecino[16,17-f]quinoline-3-carboxamide]	815	326
COc1cccc(CCNC(=O)[C@@H]2CC(=O)N(C)[C@@H](CC(C)C)C(=O)N(C)C3(CC3)C(=O)N[C@H](Cc3ccccc3)COc3nc4ccccn4c3C(=O)N2)c1 [Example 442, (3′R,9′S,13′S)-3′-benzyl-9′-isobutyl-N-(3-methoxyphenethyl)-7′,10′-dimethyl-5′,8′,11′,15′-tetraoxo-2′,3′,4′,5′,8′,9′,10′,11′,12′,13′,14′,15′-dodecahydro-7′H-spiro[cyclopropane-1,6′-pyrido[2′,11:2,3]imidazo[4,5-p][1]oxa[4,7,10,14]tetraazacycloheptadecine]-13′-carboxamide]	443	154

Now from value to molecule:

EC50 [nM]	Emax [%]	Compound
208	281	COCCCN1C(=O)[C@H](CC(C)C)N(C)C(=O)C[C@@H](C(=O)NCCc2cccc(OC)c2)NC(=O)c2c(ccc3ccccc23)OC[C@@H](Cc2ccccc2)NC(=O)[C@H]1C [Example 431, (3S,7S,10R,13R)-13-benzyl-7-isobutyl-N-(3-methoxyphenethyl)-9-(3-methoxypropyl)-6,10-dimethyl-1,5,8,11-tetraoxo-1,2,3,4,5,6,7,8,9,10,11,12,13,14-tetradecahydronaphtho[1,2-p][1]oxa[4,7,10,14]tetraazacycloheptadecine-3-carboxamide]
474	413	Cc1cc(CCNC(=O)[C@@H]2CC(=O)N(C)[C@@H](CC3CCCC3)C(=O)N(C)C3(CC3)C(=O)N[C@H](Cc3ccccc3)COc3cnc4ccccc4c3C(=O)N2)on1 [Example 432, (3′S,7′S,13′R)-13′-benzyl-7′-(cyclopentylmethyl)-6′,9′-dimethyl-N-(2-(3-methylisoxazol-5-yl)ethyl)-1′,5′,8′,11′-tetraoxo-2′,3′,4′,5′,6′,7′,8′,9′,11′,12′,13′,14′-dodecahydro-1′H-spiro[cyclopropane-1,10′-[1]oxa[4,7,10,14]tetraazacycloheptadecino[17,16-c]quinoline]-3′-carboxamide]
664	327	Cc1cc(CCNC(=O)[C@@H]2CC(=O)N(C)[C@@H](CC(C)C)C(=O)N(C)C3(CC3)C(=O)N[C@H](Cc3ccccc3)COc3cnc4ccccc4c3C(=O)N2)on1 [Example 434, (3′S,7′S,13′R)-13′-benzyl-7′-isobutyl-6′,9′-dimethyl-N-(2-(3-methylisoxazol-5-yl)ethyl)-1′,5′,8′,11′-tetraoxo-2′,3′,4′,5′,6′,7′,8′,9′,11′,12′,13′,14′-dodecahydro-1′H-spiro[cyclopropane-1,10′-[1]oxa[4,7,10,14]tetraazacycloheptadecino[17,16-c]quinoline]-3′-carboxamide]
895	119	Cc1cc(CCNC(=O)[C@@H]2CC(=O)N(C)[C@@H](CC3CCCC3)C(=O)N3CCOC[C@@H]3C(=O)N[C@H](Cc3ccccc3)COc3ccc4nc(C)oc4c3C(=O)N2)on1 [Example 435]
458	300	Cc1cc(CCNC(=O)[C@@H]2CC(=O)N(C)[C@@H](CC3CCCC3)C(=O)N3CCCC[C@@H]3C(=O)N[C@H](Cc3ccccc3)COc3ccc4nc(C)oc4c3C(=O)N2)on1 [Example 436, (8S,12S,18aR,21R)-21-benzyl-12-(cyclopentylmethyl)-4,11-dimethyl-N-(2-(3-methylisoxazol-5-yl)ethyl)-6,10,13,19-tetraoxo-6,7,8,9,10,11,12,13,16,17,18,18a,19,20,21,22-hexadecahydro-15H-oxazolo[4′,5′:5,6]benzo[1,2-p]pyrido[2,1-f][1]oxa[4,7,10,14]tetraazacycloheptadecine-8-carboxamide]
844	159	Cc1cc(CCNC(=O)[C@@H]2CC(=O)N(C)[C@@H](CC3CCCC3)C(=O)N3CCCC[C@H]3C(=O)N[C@H](Cc3ccccc3)COc3ccc4nc(C)oc4c3C(=O)N2)on1 [Example 437, (8S,12S,18aS,21R)-21-benzyl-12-(cyclopentylmethyl)-4,11-dimethyl-N-(2-(3-methylisoxazol-5-yl)ethyl)-6,10,13,19-tetraoxo-6,7,8,9,10,11,12,13,16,17,18,18a,19,20,21,22-hexadecahydro-15H-oxazolo[4′,5′:5,6]benzo[1,2-p]pyrido[2,1-f][1]oxa[4,7,10,14]tetraazacycloheptadecine-8-carboxamide]
788	296	Cc1cc(CCNC(=O)[C@@H]2CC(=O)N(C)[C@@H](CC(C)C)C(=O)N(C)C3(CC3)C(=O)N[C@H](Cc3ccccc3)COc3cnc4c(F)cccc4c3C(=O)N2)on1 [Example 440, (3′S,7′S,13′R)-13′-benzyl-18′-fluoro-7′-isobutyl-6′,9′-dimethyl-N-(2-(3-methylisoxazol-5-yl)ethyl)-1′,5′,8′,11′-tetraoxo-2′,3′,4′,5′,6′,7′,8′,9′,11′,12′,13′,14′-dodecahydro-1′H-spiro[cyclopropane-1,10′-[1]oxa[4,7,10,14]tetraazacycloheptadecino[17,16-c]quinoline]-3′-carboxamide]
316	275	Cc1cc(CCNC(=O)[C@@H]2CC(=O)N(C)[C@@H](CC(C)C)C(=O)N3CCCC[C@@H]3C(=O)N[C@H](Cc3ccccc3)COc3cnc4c(F)cccc4c3C(=O)N2)on1 [Example 443, (9S,13S,19aR,22R)-22-benzyl-3-fluoro-13-isobutyl-12-methyl-N-(2-(3-methylisoxazol-5-yl)ethyl)-7,11,14,20-tetraoxo-7,8,9,10,11,12,13,14,17,18,19,19a,20,21,22,23-hexadecahydro-16H-pyrido[2′,1′:6,7][1]oxa[4,7,10,14]tetraazacycloheptadecino[17,16-c]quinoline-9-carboxamide]
